# Source: patent publication EP0071892A2, “Phospholipid derivatives, process for preparation thereof and pharmaceutical composition of the same” (priority 1981, dated 1983)
# Like-named read-outs stand apart in the source and are kept apart here.
# How the values were obtained:
# Fibrosarcoma Meth A [1] = test: Test Method B: intrapleurally inoculated Meth A tumor in mice, injection into pleural cavity, mean survival time; type: in vivo, BALB/c mice; design: dose or concentration left out as unconfirmed; details: for Anti-tumor activity (%) *d: comparison of mean survival time of medicated group (T) and control group (C), into pleural cavity three times; for Mean survival time: into pleural cavity three times (before 14 days, after 1 hour and after 3 days of tumor implantation), 5 x 10^5 Meth A cells intrapleurally
# Experimental: Groups of eight female BALB/c mice, aged 8-9 weeks and weighing 18.0-22.5 g were used.
# Fibrosarcoma Meth A (hereinafter referred to as Meth A) was successively transferred every 7 days into BALB/c mice by intraperitoneal inoculation of the ascites cells thereof and the Meth A in the ascites cells as harvested 6 or 7 days after the inoculation was used as tumor cells.
# Each of the BALB/c mice was inoculated intrapleurally with 5 x 10^5 Meth A cells in 0.1 ml Hanks solution.
# Test compound was dissolved in phosphate buffer saline solution, and was injected into pleural cavity to each of the mice in doses of 100 pg/0.05 ml/mouse three times, i.e. before 14 days, after 1 hour and after 3 days of tumor implantation.
# The antitumor activity of the test compound was estimated by comparing mean survival time of the two groups. • T : Mean survival time of the medicated group • C : Mean survival time of the control group
# Fibrosarcoma Meth A [2] = test: Test Method A: intradermally inoculated Meth A tumor in mice, intratumoral injection of test compound, tumor growth inhibition; type: in vivo, BALB/c mice; details: 100 µg/mouse intratumorally once daily from Day 1 to Day 4 postimplant; for Mean of two diameters of the growing tumor: 1 x 10^5 Meth A cells intradermally; for responders at 0.1 mg / inhibition in vivo at 0.1 mg: Meth-A; for responders at 0.1 mg: read-out: Ratio of tumor free mice [Number of tumor free mice/ Number of mice used as a group] (converted); for inhibition in vivo at 0.1 mg: Mus musculus, read-out: Tumor growth inhibition (%) [(1-T/c)x100]
# Experimental: Groups of six female BALB/c mice, aged 12 weeks and weighing 19 - 21 g were used.
# Fib,rosarcoma Meth A (hereinafter referred to as Meth A) was successively transferred every 7 days into BALB/c mice by intraperitoneal inoculation of the ascites cells thereof and the Meth A in the ascites cells as harvested 6 days after the inoculation was used as tumor cells.
# Each of the BALB/c mice was inoculated intradermally with 1 x 10^5 Meth A cells in 0.05 ml Hanks solution.
# Test compound was dissolved in 0.5% methylcellulose saline solution, and was intratumorally injected to each of the mice in doses of 100 µg/mouse once daily from Day 1 to Day 4 postimplant.
# The control group was given with a vehicle alone in the same way.
# The antitumor effectiveness of the test compound was estimated by tumor growth inhibition (1-T/C). • T: Mean diameter of the growing tumor of the medicated group • C: Mean diameter of the growing tumor of the control group
structure (smiles),measurement,setting,value
"CCCCCCCCCCCCCCCCCCOCC(COP(=O)([O-])OCC[n+]1ccccc1)OC (racemic) [Example 1, (rac)-l-O-octadecyl-2-0-methyl-glycerol-3-[2-(1-pyridinio)ethyl]phosphate]",Anti-tumor activity (%) *d,Fibrosarcoma Meth A [1],367%
same,Mean survival time,Fibrosarcoma Meth A [1],22.0 days
same,Mean of two diameters of the growing tumor,Fibrosarcoma Meth A [2]; Day 14,0 mm
same,Ratio of tumor free mice [Number of tumor free mice/ Number of mice used as a group],Fibrosarcoma Meth A [2]; Day 21,6/6
same,Mean of two diameters of the growing tumor,Fibrosarcoma Meth A [2]; Day 21,0 mm
same,responders at 0.1 mg,Fibrosarcoma Meth A [2]; Day 14,100%
same,inhibition in vivo at 0.1 mg,Fibrosarcoma Meth A [2]; Day 14,100%
same,inhibition in vivo at 0.1 mg,Fibrosarcoma Meth A [2]; Day 21,100%
"CCCCCCCCCCCCCCCCCCOCC(COP(=O)(O)OCCN1CCN(C)CC1)OCC (racemic) [3-(1), (rac)-l-O-Octadecyl-2-0-ethyl-glycerol-3-[2-(4-methyl-l-piperazinyl)ethyl]phosphate]",Anti-tumor activity (%) *d,Fibrosarcoma Meth A [1],342%
same,Mean survival time,Fibrosarcoma Meth A [1],20.5 days
same,Mean of two diameters of the growing tumor,Fibrosarcoma Meth A [2]; Day 14,0 mm
same,Ratio of tumor free mice [Number of tumor free mice/ Number of mice used as a group],Fibrosarcoma Meth A [2]; Day 21,6/6
same,Mean of two diameters of the growing tumor,Fibrosarcoma Meth A [2]; Day 21,0 mm
same,responders at 0.1 mg,Fibrosarcoma Meth A [2]; Day 14,100%
same,inhibition in vivo at 0.1 mg,Fibrosarcoma Meth A [2]; Day 14,100%
same,inhibition in vivo at 0.1 mg,Fibrosarcoma Meth A [2]; Day 21,100%
